From PubChem BioAssay AID504419 (The Scripps Research Institute Molecular Screening Center, 2011)
Active and inactive are the calls of the source. The rule behind the calls is not given here.

Tests used:
NS3h 1b (con1) = assay: NS3 helicase inhibitors across HCV genotypes, late-stage follow-up, selectivity assay for HCV NS3 helicase inhibitor project, biochemical, real-time fluorescence, genotypes 2a and 1b, Set 2 (AID 504419); details: Recombinant NS3 helicase, real-time fluorescence unwinding
NS3h 2a (JFH1) = assay: as above; details: Recombinant NS3 helicase, real-time fluorescence unwinding

IC50 (NS3h 1b (con1)) | IC50 (NS3h 2a (JFH1)) | SMILES
> 100 µM (inactive) | > 100 µM (inactive) | COc1cc(Br)cc(C2C(C(=O)c3ccc(C)o3)=C(O)C(=O)N2c2cc(C)on2)c1OC (stereo not drawn)
> 100 µM (inactive) | > 100 µM (inactive) | Cc1ccc(NC(=O)C2=C(c3ccccc3)S(=O)(=O)CCS2(=O)=O)cc1
> 100 µM (inactive) | > 100 µM (inactive) | O=C(c1ccc2nc(-c3ccco3)c(-c3ccco3)nc2c1)N1CCN(c2ccccc2)CC1
> 100 µM (inactive) | > 100 µM (inactive) | Cc1ccc(C(=O)C2=C(O)C(=O)N(Cc3ccco3)C2c2cc(Cl)cc(Cl)c2)o1 (stereo not drawn)
